In patent US20110086924A1, “Method of manufacturing an eutectic crystalline sugar alcohol” (B Food Science Co., Ltd., priority 2005, published 2011):

Experiment: Dissolving time in water (rate of dissolution)
Assay type: physicochemical
Conditions: 10 g in 100 ml water at 20° C.; particle size 150 μm or more but less than 350 μm
Excerpt: Powder containing an eutectic crystalline sorbitol/maltitol prepared by the same way as that of Example 11 was classified into a part (crude particle part) having a particle size of 350 μm or more but less than 2 mm and a part (powdery product of 150 to 350 μm in particle size) having a particle size of 150 μm or more but less than 350 μm.
In addition, as a control, powdery sorbitol (SORBITOL FP, manufactured by NIKKEN FINE CHEMICALS CO., LTD.), powdery maltitol (AMARTY MR, manufactured by TOWA KASEI CO., LTD.), and a mixture of powdery sorbitol and powdery maltitol (1:1), which were classified so as to have a particle size of 150 μm or more but less than 350 μm (powdery product of 150 to 350 μm in particle size), were prepared.
Ten grams of each of them was poured into 100 ml of water at 20° C. and then subjected to the measurement of dissolving time. Consequently, the crude part of the powder containing an eutectic crystalline sorbitol/maltitol dissolved within 50 seconds, the powdery product of the powder containing an eutectic crystalline sorbitol/maltitol having a particle size of 150 to 350 μm dissolved within 18 seconds, the powdery sorbitol dissolved within 35 seconds, the powdery maltitol dissolved within 54 seconds, and the mixture of the powdery sorbitol and the powdery maltitol dissolved within 46 seconds.

SMILES | dissolving time
OC[C@@H](O)[C@@H](O)[C@H](O)[C@@H](O)CO [powdery sorbitol, sorbitol] | ≤ 35 s
OC[C@@H](O)[C@@H](O[C@H]1O[C@H](CO)[C@@H](O)[C@H](O)[C@H]1O)[C@H](O)[C@@H](O)CO [powdery maltitol, maltitol] | ≤ 54 s
